ChEMBL document CHEMBL1141614, “Selective COX-2 inhibitors. Part 2: synthesis and biological evaluation of 4-benzylideneamino- and 4-phenyliminomethyl-benzenesulfonamides” (Bioorg Med Chem, 2008)

Assays:
[1] = target: Prostaglandin G/H synthase 1 (Homo sapiens, UniProt P23219); format: tissue-based, Blood
Description: Inhibition of COX1 in human whole blood assessed as effect on A-23187-stimulated TxB2 production

[2] = target: T1, Prostaglandin G/H synthase 2 (Homo sapiens, UniProt P35354); test: Inhibition of COX2 in human whole blood assessed as effect on LPS-stimulated PGE2 production
T1 sequence (P35354 whole entry): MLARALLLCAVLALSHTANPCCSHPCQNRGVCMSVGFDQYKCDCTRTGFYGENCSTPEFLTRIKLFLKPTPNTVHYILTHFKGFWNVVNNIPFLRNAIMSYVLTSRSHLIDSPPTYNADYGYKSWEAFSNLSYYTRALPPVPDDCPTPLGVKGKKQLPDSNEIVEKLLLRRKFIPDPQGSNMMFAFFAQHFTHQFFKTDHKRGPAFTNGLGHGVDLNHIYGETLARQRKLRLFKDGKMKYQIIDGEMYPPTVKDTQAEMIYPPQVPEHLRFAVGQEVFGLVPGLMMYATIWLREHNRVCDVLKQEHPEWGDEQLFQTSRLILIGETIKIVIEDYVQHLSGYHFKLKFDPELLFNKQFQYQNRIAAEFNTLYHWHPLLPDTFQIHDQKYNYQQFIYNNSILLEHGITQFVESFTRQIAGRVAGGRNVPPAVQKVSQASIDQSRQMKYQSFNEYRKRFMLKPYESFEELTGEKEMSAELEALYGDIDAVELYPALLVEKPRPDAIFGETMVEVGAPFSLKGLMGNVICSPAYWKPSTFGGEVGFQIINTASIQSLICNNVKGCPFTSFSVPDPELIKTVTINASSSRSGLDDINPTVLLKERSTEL

Chain of Prostaglandin G/H synthase 1 (P23219 whole entry): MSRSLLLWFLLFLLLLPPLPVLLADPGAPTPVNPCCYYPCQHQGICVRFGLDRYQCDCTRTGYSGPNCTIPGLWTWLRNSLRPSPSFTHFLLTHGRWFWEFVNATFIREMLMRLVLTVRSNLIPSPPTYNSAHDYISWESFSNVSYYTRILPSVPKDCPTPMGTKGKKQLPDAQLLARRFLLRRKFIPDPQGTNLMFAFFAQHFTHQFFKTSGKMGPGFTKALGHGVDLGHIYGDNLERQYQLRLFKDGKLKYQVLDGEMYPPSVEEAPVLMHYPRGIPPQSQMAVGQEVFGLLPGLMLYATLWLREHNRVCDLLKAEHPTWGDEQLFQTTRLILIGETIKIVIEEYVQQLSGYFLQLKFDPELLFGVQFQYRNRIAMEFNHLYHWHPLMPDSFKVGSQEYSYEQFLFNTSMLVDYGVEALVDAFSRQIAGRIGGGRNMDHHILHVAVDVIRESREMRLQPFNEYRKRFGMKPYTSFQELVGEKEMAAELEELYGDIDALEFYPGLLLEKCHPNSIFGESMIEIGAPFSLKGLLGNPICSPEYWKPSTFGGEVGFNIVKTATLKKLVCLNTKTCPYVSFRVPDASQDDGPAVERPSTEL

IC50 [1]	IC50 [2]	SMILES
47.9 µM	3.69 µM	CCOc1cc(/C=N/c2ccc(S(N)(=O)=O)cc2)ccc1O
63.6 µM	3.11 µM	NS(=O)(=O)c1ccc(/C=N/c2ccccc2)cc1
24 µM	3.13 µM	COC(=O)c1cc(/N=C/c2ccc(S(N)(=O)=O)cc2)ccc1O
167 µM	2.93 µM	COc1cc(/C=N/c2ccc(S(N)(=O)=O)cc2)cc(OC)c1OC
184 µM	2.73 µM	COC(=O)c1ccc(/C=N/c2ccc(S(N)(=O)=O)cc2)cc1
56.7 µM	3.72 µM	COC(=O)c1ccc(/N=C/c2ccc(S(N)(=O)=O)cc2)cc1
80.2 µM	4.38 µM	NS(=O)(=O)c1ccc(/C=N/c2ccc(F)cc2)cc1
38.2 µM	2.78 µM	NS(=O)(=O)c1ccc(/N=C/c2cccc(O)c2)cc1
51.8 µM	5.09 µM	NS(=O)(=O)c1ccc(/C=N/c2ccc(O)cc2)cc1
159 µM	2.22 µM	NS(=O)(=O)c1ccc(/N=C/c2ccc(F)cc2)cc1
190 µM	4.94 µM	Cc1ccc(/C=N/c2ccc(S(N)(=O)=O)cc2)cc1
383 µM	5.45 µM	COc1cccc(/C=N/c2ccc(S(N)(=O)=O)cc2)c1
78.2 µM	2.95 µM	COc1cc(/C=N/c2ccc(S(N)(=O)=O)cc2)ccc1O
196 µM	3.36 µM	CN(C)c1ccc(/C=N/c2ccc(S(N)(=O)=O)cc2)cc1
60.7 µM	4.14 µM	COc1ccc(/N=C/c2ccc(S(N)(=O)=O)cc2)cc1
110 µM	3.09 µM	COc1ccc(/C=N/c2ccc(S(N)(=O)=O)cc2)cc1OC
23.2 µM	2.85 µM	NS(=O)(=O)c1ccc(/N=C/c2ccc(O)c(O)c2)cc1
148 µM	3.42 µM	NS(=O)(=O)c1ccc(/N=C/c2ccc(O)cc2)cc1
43.9 µM	6.54 µM	NS(=O)(=O)c1ccc(/C=N/c2ccc(C(F)(F)F)cc2)cc1
141 µM	3 µM	NS(=O)(=O)c1ccc(/N=C/c2ccc([N+](=O)[O-])cc2)cc1
108 µM	2.87 µM	NS(=O)(=O)c1ccc(/N=C/c2ccccc2)cc1
63.2 µM	4.62 µM	Cc1ccc(/N=C/c2ccc(S(N)(=O)=O)cc2)cc1
64.4 µM	1.95 µM	CN(C)c1ccc(/N=C/c2ccc(S(N)(=O)=O)cc2)cc1
156 µM	2.71 µM	COc1cc(/C=N/c2ccc(S(N)(=O)=O)cc2)cc(OC)c1O
31.3 µM	4.28 µM	COc1ccc(/N=C/c2ccc(S(N)(=O)=O)cc2)cc1OC
43.8 µM	3.5 µM	COc1ccc(/C=N/c2ccc(S(N)(=O)=O)cc2)cc1O
110 µM	3.4 µM	COc1cc(/C=N/c2ccc(S(N)(=O)=O)cc2)cc(OC)c1
314 µM	9.88 µM	COc1ccc(/C=N/c2ccc(S(N)(=O)=O)cc2)cc1
106 µM	6.75 µM	NS(=O)(=O)c1ccc(/N=C/c2cccc([N+](=O)[O-])c2)cc1

SMILES	IC50 [1]	IC50 [2]
NS(=O)(=O)c1ccc(/N=C/c2ccc(C(F)(F)F)cc2)cc1	182 µM	4.6 µM
NS(=O)(=O)c1ccc(/N=C/c2ccc(O)c(C(=O)O)c2)cc1	85.1 µM	0.74 µM
